Test results from patent US11000033B2, “Ketone or oxime compound, and herbicide” (NISSAN CHEMICAL CORPORATION, priority 2014, dated 2021).

Columns and labels:
Assay type in all cases: in vivo
Abutilon theophrasti [1] = assay: Test Example 5: herbicidal effect by foliage application, plastic box (symbol M); details: 320 g/ha, 3 weeks after application
Outline: (§1)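 Emulsion formulation, diluted with water to the intended rate, was applied uniformly to leaves by small sprayer. Recipients were 14-day greenhouse-grown seedlings (25° C. to 30° C.). Assessment followed at 3 weeks.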

Leptochloa chinensis = assay: Test Example 3: herbicidal effect by foliage application, Wagner pot (symbol D); details: application herbicide amount 320 g/ha; for D (Leptochloa chinensis) herbicidal effect grade: Table 24
Outline: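 Steps: fill pot with alluvial soil; add water to 0.1–0.5 cm depth; sow weed and rice seed; grow 14 days at 25–30 °C; spray diluted emulsion over the leaves; rate effect after 3 weeks.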

[2] = system: Echinochloa oryzacola Vasing.; assay: Test Example 2: herbicidal activity, application during weed generation in submerged conditions (symbol A); details: Table 23; application herbicide amount 320 g/ha; grade 0-5 by criteria of Test Example 1
Outline: (§2)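 Submerged alluvial soil (4 cm) sown with mixed seed; greenhouse 25–30° C. 1–2 leaf: diluted emulsion onto water surface, preset dose. Visual score, 3 wk.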

Scirpus juncoides = assay: Test Example 2: herbicidal activity, application during weed generation in submerged conditions (symbol B); details: Table 23; application herbicide amount 320 g/ha; grade 0-5 by criteria of Test Example 1
Outline: as §2

soybean = assay: Test Example 4: effect on crop by soil treatment (symbol d); details: for Effect on crop grade, d: soybean / d (soybean) effect on crop grade: application herbicide amount 320 g/ha
Outline: (§3)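 Crop seed is sown in spots together with several weed species in a box of sterilized diluvial soil. It is covered by about 1.5 cm of soil and kept in a greenhouse held between 25° C. and 30° C.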

transplanted rice plant = assay: Test Example 1: effect on crop, application before weed generation in submerged conditions (symbol a); details: application herbicide amount 320 g/ha
Outline: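 Rice at 2.5 leaf stage transplanted into submerged soil (4 cm depth) sown with three weed species; herbicide applied before weed emergence.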

Lolium multiflorum Lam. = assay: Test Example 5: herbicidal effect by foliage application, plastic box (symbol K); details: 320 g/ha, 3 weeks after application
Outline: as §1

Avena fatua = assay: Test Example 4: herbicidal effect by soil treatment (symbol I); details: for Herbicidal effect grade, I: Avena fatua / I (Avena fatua) herbicidal effect grade: application herbicide amount 320 g/ha
Outline: (§4)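 Seeds were sown in sterilized diluvial soil, covered with about 1.5 cm of soil, and the soil surface was sprayed with a water-diluted emulsion of the compound at a predetermined rate. Plants grew in a greenhouse at 25° C. to 30° C.; effects were scored visually 3 weeks after application.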

Setaria viridis = assay: Test Example 5: herbicidal effect by foliage application, plastic box (symbol G); details: 320 g/ha, 3 weeks after application
Outline: as §1

Abutilon theophrasti [3] = assay: Test Example 4: herbicidal effect by soil treatment (symbol M); details: for Herbicidal effect grade, M: Abutilon theophrasti / M (Abutilon theophrasti) herbicidal effect grade: application herbicide amount 320 g/ha
Outline: as §4

beet [4] = assay: Test Example 5: effect on crop by foliage application, plastic box (symbol f); details: 320 g/ha, 3 weeks after application
Outline: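 In a plastic box 7 cm deep filled with sterilized diluvial soil, seeds of crops and weeds such as Digitaria ciliaris, Avena fatua and Amaranthus retroflexus are sown in spots and covered with about 1.5 cm of soil before greenhouse growth at 25–30° C.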

beet [5] = assay: Test Example 4: effect on crop by soil treatment (symbol f); details: for Effect on crop grade, f: beet / f (beet) effect on crop grade: application herbicide amount 320 g/ha
Outline: as §3

Row | Structure (SMILES) | M: Abutilon theophrasti, herbicidal effect grade (Abutilon theophrasti [1]) | D (Leptochloa chinensis) herbicidal effect grade (Leptochloa chinensis) | Herbicidal effect grade, A: Echinochloa oryzacola Vasing. [2] | Herbicidal effect grade, B: Scirpus juncoides (Scirpus juncoides) | Effect on crop grade, d: soybean (soybean) | Effect grade on crop, a: transplanted rice plant (transplanted rice plant) | K: Lolium multiflorum Lam., herbicidal effect grade (Lolium multiflorum Lam.) | Herbicidal effect grade, I: Avena fatua (Avena fatua) | G: Setaria viridis, herbicidal effect grade (Setaria viridis) | Herbicidal effect grade, M: Abutilon theophrasti (Abutilon theophrasti [3]) | f: beet, effect on crop grade (beet [4]) | Effect on crop grade, f: beet (beet [5]) | herbicidal effect on D (Leptochloa chinensis), grade 0-5 (Leptochloa chinensis) | d (soybean) effect on crop grade (soybean) | I (Avena fatua) herbicidal effect grade (Avena fatua) | M (Abutilon theophrasti) herbicidal effect grade (Abutilon theophrasti [3]) | f (beet) effect on crop grade (beet [5]) | further results
1 | CON=C(CC1CC(O)=C(c2c(C)cc(-n3cc(Cl)cn3)cc2C)C1=O)C(C)C (stereo not drawn) [9-004] | 0 (Herbicidal ratio of 5% or lower (almost no effect)) | 5 (Herbicidal ratio of 90% or more (almost completely withered)) | 5 (Herbicidal ratio of 90% or more (almost completely withered)) | 2 (Herbicidal ratio of 20% or higher and lower than 40%) | 0 (Herbicidal ratio of 5% or lower (almost no effect)) | 5 (Herbicidal ratio of 90% or more (almost completely withered)) | 5 (Herbicidal ratio of 90% or more (almost completely withered)) | 2 (Herbicidal ratio of 20% or higher and lower than 40%) | 5 (Herbicidal ratio of 90% or more (almost completely withered)) | 0 (Herbicidal ratio of 5% or lower (almost no effect)) | 0 (Herbicidal ratio of 5% or lower (almost no effect)) | 0 (Herbicidal ratio of 5% or lower (almost no effect)) | – | – | – | – | – | –
2 | CC(CC1CC(O)=C(c2c(C)cc(C)cc2C)C1=O)=NOc1ccccc1 (stereo not drawn) [1-057] | 1 (Herbicidal ratio of 5% or higher and lower than 20%) | – | 2 (Herbicidal ratio of 20% or higher and lower than 40%) | 0 (Herbicidal ratio of 5% or lower (almost no effect)) | – | 4 (Herbicidal ratio of 70% or higher and lower than 90%) | 5 (Herbicidal ratio of 90% or more (almost completely withered)) | – | 3 (Herbicidal ratio of 40% or higher and lower than 70%) | – | 1 (Herbicidal ratio of 5% or higher and lower than 20%) | – | 3 (Herbicidal ratio of 40% or higher and lower than 70%) | 0 (Herbicidal ratio of 5% or lower (almost no effect)) | 0 (Herbicidal ratio of 5% or lower (almost no effect)) | 3 (Herbicidal ratio of 40% or higher and lower than 70%) | 0 (Herbicidal ratio of 5% or lower (almost no effect)) | –
3 | CON=C(CC1CC(O)=C(c2c(C)cc(C)cc2C)C1=O)C1CC1 (stereo not drawn) [1-046] | 3 (Herbicidal ratio of 40% or higher and lower than 70%) | – | 5 (Herbicidal ratio of 90% or more (almost completely withered)) | 5 (Herbicidal ratio of 90% or more (almost completely withered)) | – | 5 (Herbicidal ratio of 90% or more (almost completely withered)) | 5 (Herbicidal ratio of 90% or more (almost completely withered)) | – | 5 (Herbicidal ratio of 90% or more (almost completely withered)) | – | 0 (Herbicidal ratio of 5% or lower (almost no effect)) | – | 5 (Herbicidal ratio of 90% or more (almost completely withered)) | 0 (Herbicidal ratio of 5% or lower (almost no effect)) | 5 (Herbicidal ratio of 90% or more (almost completely withered)) | 4 (Herbicidal ratio of 70% or higher and lower than 90%) | 0 (Herbicidal ratio of 5% or lower (almost no effect)) | –
4 | CON=C(C)CC1CC(OC(=O)C2=C(Br)CCC2)=C(c2c(C)cc(C)cc2C)C1=O (stereo not drawn) [1-089] | – | – | 5 (Herbicidal ratio of 90% or more (almost completely withered)) | 4 (Herbicidal ratio of 70% or higher and lower than 90%) | – | 5 (Herbicidal ratio of 90% or more (almost completely withered)) | – | – | – | – | – | – | 5 (Herbicidal ratio of 90% or more (almost completely withered)) | – | – | – | – | M: Abutilon theophrasti, herbicidal effect (criteria 0-5) (Abutilon theophrasti [1]): 4 (Herbicidal ratio of 70% or higher and lower than 90%); d: soybean, effect grade on crop (soybean; 320 g/ha): 0 (Herbicidal ratio of 5% or lower (almost no effect)); K: Lolium multiflorum Lam., herbicidal effect (criteria 0-5) (Lolium multiflorum Lam.): 5 (Herbicidal ratio of 90% or more (almost completely withered)); I: Avena fatua, herbicidal effect grade (Avena fatua; 320 g/ha): 2 (Herbicidal ratio of 20% or higher and lower than 40%); G: Setaria viridis, herbicidal effect (criteria 0-5) (Setaria viridis): 5 (Herbicidal ratio of 90% or more (almost completely withered)); M: Abutilon theophrasti, herbicidal effect grade (Abutilon theophrasti [3]; 320 g/ha): 2 (Herbicidal ratio of 20% or higher and lower than 40%); f: beet, effect on crop (criteria 0-5) (beet [4]): 0 (Herbicidal ratio of 5% or lower (almost no effect)); f: beet, effect grade on crop (beet [5]; 320 g/ha): 0 (Herbicidal ratio of 5% or lower (almost no effect))
5 | CC(CC1CC(O)=C(c2c(C)cc(C)cc2C)C1=O)=NOCC1CC1 (stereo not drawn) [1-024] | 1 (Herbicidal ratio of 5% or higher and lower than 20%) | – | 5 (Herbicidal ratio of 90% or more (almost completely withered)) | 5 (Herbicidal ratio of 90% or more (almost completely withered)) | – | 5 (Herbicidal ratio of 90% or more (almost completely withered)) | 5 (Herbicidal ratio of 90% or more (almost completely withered)) | – | 5 (Herbicidal ratio of 90% or more (almost completely withered)) | – | 0 (Herbicidal ratio of 5% or lower (almost no effect)) | – | 5 (Herbicidal ratio of 90% or more (almost completely withered)) | 1 (Herbicidal ratio of 5% or higher and lower than 20%) | 4 (Herbicidal ratio of 70% or higher and lower than 90%) | 3 (Herbicidal ratio of 40% or higher and lower than 70%) | 0 (Herbicidal ratio of 5% or lower (almost no effect)) | –
6 | CON=C(CC1CC(O)=C(c2c(C)cc(Br)cc2C)C1=O)C(C)C (stereo not drawn) [9-001] | 0 (Herbicidal ratio of 5% or lower (almost no effect)) | 4 (Herbicidal ratio of 70% or higher and lower than 90%) | 4 (Herbicidal ratio of 70% or higher and lower than 90%) | 0 (Herbicidal ratio of 5% or lower (almost no effect)) | 0 (Herbicidal ratio of 5% or lower (almost no effect)) | 4 (Herbicidal ratio of 70% or higher and lower than 90%) | 5 (Herbicidal ratio of 90% or more (almost completely withered)) | 0 (Herbicidal ratio of 5% or lower (almost no effect)) | 4 (Herbicidal ratio of 70% or higher and lower than 90%) | 0 (Herbicidal ratio of 5% or lower (almost no effect)) | 0 (Herbicidal ratio of 5% or lower (almost no effect)) | 0 (Herbicidal ratio of 5% or lower (almost no effect)) | – | – | – | – | – | –
